Active and inactive are the calls of the source. The rule behind the calls is not given here.
How the values were obtained:
[1] = Haemolytic activity in human erythrocytes assessed as induction of hemolysis at 2.5 mM after 30 mins relative to H202; type: cell-based, Erythrocyte; conditions: erythrocytes, read-out: Activity
[2] = Antioxidant activity assessed as DPPH radical scavenging activity incubated in dark for 30 mins by spectrophotometric method relative to ascorbic acid; type: functional
[3] = Antioxidant activity assessed as hydroxyl radical scavenging activity after 1 hr by salicylic acid-based Fenton reaction assay; type: functional
HCT-116 [4] = test: Induction of apoptosis in human HCT116 cells assessed as increase in caspase 3 mRNA expression at 100 nM after 6 hrs hrs by SYBR green dye-based qRT-PCR analysis relative to control; type: functional
HCT-116 [5] = test: […] in CDK1 mRNA expression in human HCT116 cells at 100 nM after 6 hrs hrs by SYBR green dye-based qRT-PCR analysis relative to control; type: functional
K562 = test: Antiproliferative activity against human K562 cells assessed as growth inhibition after 48 hrs by sulforhodamine B assay; type: functional, cell-based; conditions: K562, 48 h
[6] = Antioxidant activity assessed as ABTS radical scavenging activity by spectrophotometric analysis relative to control; type: functional; parameters: concentration or dose not given beside the values; conditions: dose or concentration not given here
[7] = (§1) Selectivity index, ratio of IC50 for human WI38 cells to GI50 for human NCI60 cells
[8] = Haemolytic activity in human erythrocytes assessed as induction of hemolysis at 10 mM after 30 mins relative to H202; type: cell-based, Erythrocyte; conditions: read-out: Activity
[9] = Haemolytic activity in human erythrocytes assessed as induction of hemolysis at 5 mM after 30 mins relative to H202; type: cell-based, Erythrocyte; conditions: read-out: Activity
Erythrocyte [10] = test: (§2) Haemolytic activity in human erythrocytes assessed as induction of hemolysis at 0.625 mM after 30 mins relative to H202; type: cell-based; conditions: erythrocyte, 0.5 h, 625 µM
HCT-116 [11] = test: Induction of apoptosis in human HCT116 cells assessed as increase in caspase 9 mRNA expression at 100 nM after 6 hrs hrs by SYBR green dye-based qRT-PCR analysis relative to control; type: functional
[12] = Pro-oxidant activity assessed as increase in bleomycin-Fe2+ induced calf thymus DNA damage at 2 mM after 1 hr by thiobarbituric acid based absorbance analysis
[13] = Antioxidant activity assessed as DPPH radical scavenging activity incubated in dark for 30 mins by spectrophotometric method relative to control; type: functional; parameters: concentration or dose not given beside the values
WI-38 = test: Cytotoxicity activity against human WI38 cells assessed as reduction in cell viability measured after 48 hrs by MTT assay; type: cell-based; conditions: WI-38, 48 h
Erythrocyte [14] = test: (§3) Haemolytic activity in human erythrocytes assessed as induction of hemolysis at 1.25 mM after 30 mins relative to H202; type: cell-based; conditions: erythrocyte, 0.5 h, 1250 µM
[15] = Antioxidant activity assessed as ABTS radical scavenging activity by spectrophotometric method relative to ascorbic acid; type: functional
HCT-116 [16] = test: Induction of apoptosis in human HCT116 cells assessed as increase in p53 mRNA expression at 100 nM after 6 hrs hrs by SYBR green dye-based qRT-PCR analysis relative to control; type: functional
HCT-116 [17] = test: Reduction in CDK1 mRNA expression in human HCT116 cells at 100 nM after 6 hrs hrs by SYBR green dye-based qRT-PCR analysis relative to control; type: functional; conditions: HCT-116, 6 h
Homo sapiens = species: Homo sapiens; test: as §1
[18] = as §2; type: cell-based, Erythrocyte; conditions: erythrocytes, read-out: Activity
[19] = as §3; type: cell-based, Erythrocyte; conditions: erythrocytes, read-out: Activity

Compound | hemolysis at 0.5 h, 2500 µM [1] | fold change (FC) [2] | Activity [3] | fold change (FC) (HCT-116 [4]) | fold change (FC) (HCT-116 [5]) | IC50 (K562; read-out: IC50) | IC50 (K562; read-out: pIC50 (converted)) | inhibition [6] | Selectivity Index [7] | hemolysis at 0.5 h, 10000 µM [8] | hemolysis at 0.5 h, 5000 µM [9] | Activity (Erythrocyte [10]) | fold change (FC) (HCT-116 [11]) | Activity [12] | inhibition [13] | IC50 (WI-38) | Activity (Erythrocyte [14]) | fold change (FC) [15] | fold change (FC) (HCT-116 [16]) | hemolysis at 0.5 h, 1250 µM [19] | also measured
N=C(N)c1ccc(-c2ccc(-c3ccccc3)s2)s1 | 15.3% | 0.6 | Active | 2.39 | 0.88 | 0.24 µM | 38000 µM | 61.7% | 38.3 | 85.1% | 56.7% | Non-Toxic | 2.47 | Active | 53% | 49.1 µM | Non-Toxic | 0.7 | 1.1 | – | –
O=c1[nH]cc(F)c(=O)[nH]1 [FLUOROURACIL] | – | – | – | 3.92 | 0.48 | – | – | – | – | – | – | – | 4.53 | – | – | 8.4 µM | – | – | 1.48 | – | inhibition at 0.1 µM (HCT-116 [17]): 50 to 52%; Selectivity Index (Homo sapiens): inactive
COc1ccc(-c2ccc(-c3ccc(C(=N)N)s3)s2)cc1 | 41% | 0.6 | Active | 2.51 | 0.91 | 0.18 µM | 19500 µM | 59.2% | 43 | 92.7% | 63.7% | – | 2.38 | Active | 51.9% | 12.9 µM | – | 0.6 | 1.06 | 17.3% | hemolysis at 0.5 h, 625 µM [18]: 4%
O=C1O[C@H]([C@@H](O)CO)C(O)=C1O [ASCORBIC ACID] | 4% | 1 | – | – | – | – | – | – | – | 16.3% | 8% | Non-Toxic | – | – | – | – | Non-Toxic | 1 | – | – | –
COc1cccc(-c2ccc(-c3ccc(C(=N)N)s3)s2)c1 | 16.1% | 0.5 | Active | 3.71 | 0.93 | 0.18 µM | 19500 µM | 58.2% | 148.4 | 79% | 39% | Non-Toxic | 1.01 | Active | 47.5% | 77.2 µM | – | 0.6 | 0.89 | 3.1% | –
